Measurements reported in patent US12475972B2, “Prediction system for identifying key heterogeneous molecules driving tumor metastasis” (NANJING HANWEI PUBLIC HEALTH TECHNOLOGY CO., LTD., priority 2021, dated 2025).

Tests used:
[1] = system: gastric cancer cells BGC823, SGC7901, and MFC; assay: Perforated cell count (transwell) after SP141; format: cell-based; details: different doses, 24 hours
[2] = system: BGC823-luc; assay: BGC823-luc tail vein passive metastasis model, in vivo fluorescence imaging; parameters: species or system nude mice
Method: In an in vivo model, fluorescent labeled gastric cancer cells BGC823-luc were injected into the tail vein of nude mice to construct a passive metastasis model of gastric cancer. Drug intervention began on the second day after cell inoculation (FIG. 11A). […] The weight of the mice of the drug intervention group was relatively stable and in good condition (FIG. 11B). […] Thus, as shown in FIGS. 11A-11D, the joint intervention of JWA and MDM2 has a synergistic inhibitory effect on gastric cancer metastasis in vivo.

[3] = system: gastric cancer cells BGC823, SGC7901, and MFC; assay: Cell scratch assay after SP141; format: cell-based
[4] = system: gastric cancer cell line MFC; assay: MFC abdominal implant metastasis model; format: in vivo, mouse
Method: The mouse-derived gastric cancer cell line MFC were selected to construct an abdominal implant metastasis model. On the second day of cell inoculation, different doses of SP141 were administered intraperitoneally for intervention. The modeling was completed and the number of abdominal metastatic nodules was recorded.

[5] = system: BGC823; assay: CCK-8 half inhibitory concentration on gastric cancer cells; format: cell-based; details: CCK-8, BGC823
[6] = system: B16F10 melanoma cells; assay: B16F10 tail vein passive lung metastasis model; format: in vivo, mice; details: different doses, dose-response
Method: A passive metastasis model was constructed by injecting B16F10 melanoma cells into the tail vein of mice. On the second day of cell inoculation, the mice were grouped, and Ctrl-R or JP1 peptides were injected intraperitoneally for intervention. […] Note: Ctrl-R peptide and JP1 peptide can be found in Cui J, et al. Theranotics 2020; 10 (18): Recorded in 8036-8050.
A passive metastatic mouse model was constructed using B16F10 cells. On the second day of cell inoculation, different doses of SP141 were used for intervention. At the end of the modeling, the number of metastatic nodules in the lungs was recorded. As shown in FIGS. 29A-29D, SP141 can inhibit the lung metastasis of melanoma in mice, and there is a dose-response relationship. […] Conclusion: inhibition of MDM2 by SP141 can effectively reduce in vivo metastasis of melanoma in mice.
The mouse model validation was further carried out on the basis of cell model validation. A lung metastasis model with B16F10 cell tail vein injection was constructed, and on the second day, the mice were randomly grouped according to their body weight for drug intervention. As shown in FIGS. 31A-31F, the joint intervention of JWA and MDM2 has a synergistic inhibitory effect on the in vivo metastasis of melanoma. […]

[7] = system: MDM2; assay: MDM2 and JWA protein expression in B16F10 cells after SP141; format: cell-based; details: B16F10, 0, 0.25, 0.5 μM, 24 hours
Method: The relationship between the expression levels of JWA and MDM2 genes and the prognosis of melanoma population was analyzed using the TCGA database. […] Meanwhile, melanoma cells B16F10 were treated respectively with 0, 0.25, 0.5 μM SP141 for 24 hours, and the protein expression levels of MDM2 and JWA were measured.

[8] = system: MGC803; assay: CCK-8 half inhibitory concentration on gastric cancer cells; format: cell-based; details: CCK-8, MGC803
[9] = system: MFC; assay: as above; format: cell-based, mouse; details: CCK-8, MFC
[10] = system: AGS cells; assay: Transwell assay in AGS cells, Flag-JWA plasmid and SP141; format: cell-based; details: compared to the control group
Description: Thus, as shown in FIGS. 10A-10B, the combined intervention of JWA and MDM2 has a synergistic inhibitory effect on gastric cancer cell migration.

[11] = system: SGC7901; assay: CCK-8 half inhibitory concentration on gastric cancer cells; format: cell-based; details: CCK-8, SGC7901
[12] = system: AGS; assay: as above; format: cell-based; details: CCK-8, AGS
[13] = system: MDM2; assay: MDM2 and JWA protein expression in BGC823 cells after SP141; format: cell-based; details: BGC823, 0, 0.25, 0.5 μM, 24 hours
Method: With a cell model, the mutual regulation between JWA and MDM2 proteins was examined. […] Thereafter, 0, 0.25, 0.5 μM SP141 were used to inhibit the expression level of MDM2 in gastric cancer cells BGC823 for 24 hours. […] Thus, it can be seen that as shown in FIGS. 9A-9C, in gastric cancer, JWA and MDM2 have no mutually regulatory relationship at the protein and mRNA levels, and their respective biological functions on gastric cancer cells are independent.

[14] = system: FASN; assay: Immunoblotting of FASN and FAK after EGCG; format: cell-based; details: dose-response
[15] = system: BGC823-LPC1; assay: BGC823-LPC1 passive metastasis model; format: in vivo, mice; details: compared to the solvent control group
Method: A passive metastasis model was constructed by extracting primary cells BGC823-LPC1 from residual lung metastases after joint intervention on JWA and MDM2. On the second day after injecting cells into the tail vein of the model mice, they were grouped and administered. During the medication period, they were weighed on time. At the end of the modeling, the lung wet weight of each group of mice was measured, and the situation of lung metastases was observed.

[16] = system: FASN; assay: Protein mass spectrometry of residual lung metastatic lesions; format: in vivo, mice
Description: On the basis of the above model, primary cells were extracted from the residual gastric cancer cells metastatic foci of the lungs of EGCG-treated mice, named BGC823-LPC2. Firstly, protein mass spectrometry analysis was continued on the residual metastatic lesions in the lungs of the EGCG group and the combined treatment group with SP141 and JP3, with a focus on observing the protein expression changes of each independent molecule identified in 1.4 above.

[17] = system: BGC823 cells and BGC823-LPC1; assay: Transwell experiment after FASN inhibitor EGCG; format: cell-based; details: different concentrations, 24 hours
Method: Further validation of the relationship between FASN and gastric cancer metastasis using transwell and scratch experiments: BGC823 cells and BGC823-LPC1 (primary cells of residual lung metastases in the animal model SP141 and JP3 combined intervention group) were treated with different concentrations of FASN inhibitor EGCG for 24 hours, followed by transwell experiments. […] The inhibition rate of perforation cells was similar in both types of cells (FIG. 20B). […] As shown in FIGS. 20A-20D, intervention on FASN can inhibit the migration of gastric cancer cells.

[18] = system: BGC823-LPC2 cells; assay: BGC823-LPC2 passive metastasis model; format: in vivo, nude mice; details: compared with the solvent control group
Description: On the basis of the positive results obtained in the cell model, the animal model was then validated. A passive metastasis model was constructed using BGC823-LPC2 cells injected through the tail vein of nude mice. The mice were randomized on the second day and given control solvent, EGCG, WP-1130 alone, and WP-1130 plus sh-PFN1 lentivirus in a sequential manner.

[19] = system: USP9X; assay: Immunoblotting of USP9X and p-AKT after WP-1130; format: cell-based; details: dose-response
[20] = system: BGC823 LPC2 cells; assay: Scratch experiment after WP-1130; format: cell-based
[21] = system: BGC823-LPC2; assay: Transwell experiment in BGC823-LPC2 cells; format: cell-based; details: treated 8 hours, dose-response
Method: To verify the relationship between USP9X and gastric cancer metastasis, cultured BGC823 LPC2 cells were first treated with USP9X inhibitor WP-1130 (existing product) for 8 hours before a transwell experiment. […] Thus, it can be seen that inhibiting the expression of USP9X can effectively reduce the migration of gastric cancer cells.
For the heterogeneous molecule PFN1, a low expression lentiviral plasmid sh-PFN1 was constructed due to the lack of commercialized inhibitor compounds. Transwell experiments were performed after transfection of sh-con and sh-PFN1 in BGC823-LPC2 for 48 hours.

COc1ccc2[nH]c3c(-c4cccc5ccccc45)nccc3c2c1 [SP141] was tested, and the “number of perforated cells” value [1] was “gradually decreased with increasing dose”, the “fluorescence intensity of lung metastases” value [2] was “weaker than that of the control group” and the “migration rate of the cells” value [3] was “significantly slowed down”. For the same molecule, the “number of abdominal metastatic nodules compared with the control group” value ([4]; 40 mg/kg group) was “statistically significant”, the “MDM2 protein levels in residual tumor tissues” value ([4]; 40 mg/kg group vs control, immunoblotting) was “significant decrease” and the “number of gastric cancer abdominal implantation metastases” value ([4]; different doses intraperitoneally) was “could inhibit the number of gastric cancer abdominal implantation metastases”. The IC50 [5] was 599 nM, the “lung metastasis of melanoma” value [6] was “can inhibit” and the “JWA protein expression level” value [7] was “no significant change”. The “protein expression level of MDM2” value [7] was “decreased with increasing SP141 dose”, the IC50 [8] was 616 nM and the IC50 [9] was 345 nM. For the same molecule, the “number of cell perforations” value [10] was “decrease”, the IC50 [11] was 687 nM and the IC50 [12] was 335 nM. For the same molecule, the “protein expression level of JWA” value [13] was “no significant change” and the “protein expression level of MDM2” value [13] was “decreased with increasing SP141 dose”.
For O=C(O[C@@H]1Cc2c(O)cc(O)cc2O[C@@H]1c1cc(O)c(O)c(O)c1)c1cc(O)c(O)c(O)c1 [EGCG], the “expression level of FASN protein” value [14] was “reduced”, the “transfer related protein FAK” value [14] was “correspondingly reduced” and the lung wet weight [15] was “significant decrease”. The “number of metastatic foci” value [15] was “significant decrease”, the “rest of the proteins inhibited” value ([16]; other independent molecules identified in 1.4) was “less than 20%” and the FASN inhibited ([16]; residual lung metastatic lesions, vs SP141 and JP3 combined treatment group) was 22%. The “number of perforation cells” value [17] was “significantly reduced”, the lung metastatic foci [18] was “did not decrease significantly” and the lung wet weight [18] was “not obvious”.
For CCCCCCCCCCC[C@@H](C[C@@H]1OC(=O)[C@H]1CCCCCC)OC(=O)[C@H](CC(C)C)NC=O [Orlistat], the lung wet weight [15] was “significant decrease” and the “number of metastatic foci” value [15] was “significant decrease”.
For CCC[C@H](NC(=O)/C(C#N)=C/c1cccc(Br)n1)c1ccccc1 [WP-1130], the “expression of USP9X protein” value [19] was “reduced”, the “transfer related protein p-AKT” value [19] was “correspondingly reduced” and the scratch experiment [20] was “consistent with those of the small chamber perforation experiment”. The “number of cell perforations” value [21] was “significantly inhibit”, the lung metastatic foci [18] was “decreased significantly” and the lung wet weight [18] was “decreased significantly”.
